From the NIST ThermoML archive (doi:10.1016/j.jct.2008.05.014)

Assay: xn = mol fraction of the nth substance listed
Settings: Liquid; for speed of sound: Pulse-echo method

CCCCCCCCCCCC [dodecane] + CCCCCCC
Settings	mass density [kg/m3]	speed of sound [m/s]
313.11 K, 75990 kPa, x2 = 0.1014	–	1575.8
313.11 K, 75990 kPa, x2 = 0.3007	–	1560.1
313.11 K, 75990 kPa, x2 = 0.5003	–	1544.4
313.11 K, 75990 kPa, x2 = 0.7007	–	1524.1
313.11 K, 91180 kPa, x2 = 0.1014	–	1630.7
313.11 K, 91180 kPa, x2 = 0.3007	–	1616.4
313.11 K, 91180 kPa, x2 = 0.5003	–	1601.4
313.11 K, 101320 kPa, x2 = 0.3007	–	1651.1
313.11 K, 101320 kPa, x2 = 0.5003	–	1637
313.11 K, 101320 kPa, x2 = 0.7007	–	1618.5
313.12 K, 101 kPa, x2 = 0.8	–	1108.9
313.12 K, 15200 kPa, x2 = 0.5003	–	1261.2
313.12 K, 30390 kPa, x2 = 0.8496	–	1297.9
313.12 K, 45590 kPa, x2 = 0.3007	–	1435.5
313.12 K, 45590 kPa, x2 = 0.8496	–	1375.3
313.12 K, 60790 kPa, x2 = 0.3007	–	1500.5
313.12 K, 60790 kPa, x2 = 0.8496	–	1444.9
313.12 K, 75990 kPa, x2 = 0.8496	–	1508.4
313.12 K, 91180 kPa, x2 = 0.8496	–	1566.8
313.12 K, 101320 kPa, x2 = 0.8496	–	1604
313.13 K, 101 kPa, x2 = 0.2001	–	1199.7
313.13 K, 101 kPa, x2 = 0.5002	–	1159.9
313.13 K, 15200 kPa, x2 = 0.8496	–	1209.3
313.14 K, 101 kPa, x2 = 0.1007	–	1210.7
313.15 K, 101 kPa, x2 = 0	734.369	–
313.15 K, 101 kPa, x2 = 0.0991	730.129	–
313.15 K, 101 kPa, x2 = 0.2008	725.372	–
313.15 K, 101 kPa, x2 = 0.2998	720.306	–
313.15 K, 101 kPa, x2 = 0.3996	714.763	–
313.15 K, 101 kPa, x2 = 0.5	708.645	–
313.15 K, 101 kPa, x2 = 0.6	701.955	–
313.15 K, 101 kPa, x2 = 0.7005	694.545	–
313.15 K, 101 kPa, x2 = 0.7995	686.378	–
313.15 K, 101 kPa, x2 = 0.8486	682.014	–
313.15 K, 101 kPa, x2 = 0.8988	677.238	–
313.15 K, 101 kPa, x2 = 0.9498	672.083	–
313.21 K, 15200 kPa, x2 = 0	–	1313.4
313.21 K, 30390 kPa, x2 = 0	–	1391.1
313.21 K, 45590 kPa, x2 = 0	–	1460.8
313.21 K, 60790 kPa, x2 = 0	–	1524.1
313.21 K, 75990 kPa, x2 = 0	–	1582.5
313.21 K, 91180 kPa, x2 = 0	–	1637.3
313.21 K, 101320 kPa, x2 = 0	–	1671.3
318.15 K, 101 kPa, x2 = 0	730.715	–
318.15 K, 101 kPa, x2 = 0.0991	726.449	–
318.15 K, 101 kPa, x2 = 0.2008	721.654	–
318.15 K, 101 kPa, x2 = 0.2998	716.534	–
318.15 K, 101 kPa, x2 = 0.3996	710.938	–
318.15 K, 101 kPa, x2 = 0.5	704.756	–
318.15 K, 101 kPa, x2 = 0.6	698	–
318.15 K, 101 kPa, x2 = 0.7005	690.511	–
318.15 K, 101 kPa, x2 = 0.7995	682.231	–
318.15 K, 101 kPa, x2 = 0.8486	677.842	–
318.15 K, 101 kPa, x2 = 0.8988	673.004	–
318.15 K, 101 kPa, x2 = 0.9498	667.78	–
318.17 K, 30390 kPa, x2 = 0.9391	–	1264.9
318.17 K, 60790 kPa, x2 = 0.9391	–	1416.7
318.17 K, 75990 kPa, x2 = 0.9391	–	1481.5
318.17 K, 91180 kPa, x2 = 0.9391	–	1540.9
318.17 K, 101320 kPa, x2 = 0.9391	–	1578.8
318.18 K, 15200 kPa, x2 = 0.9391	–	1172.9
318.18 K, 30390 kPa, x2 = 0.4999	–	1327.8
318.18 K, 45590 kPa, x2 = 0.4999	–	1402.2
318.18 K, 45590 kPa, x2 = 0.9391	–	1345
318.18 K, 60790 kPa, x2 = 0.4999	–	1469.5
318.18 K, 75990 kPa, x2 = 0.4999	–	1530.5
318.18 K, 75990 kPa, x2 = 0.97	–	1479.1
318.18 K, 91180 kPa, x2 = 0.4999	–	1587.8
318.18 K, 101320 kPa, x2 = 0.4999	–	1623.8
318.19 K, 15200 kPa, x2 = 0.4999	–	1243.6
318.19 K, 15200 kPa, x2 = 0.97	–	1168.4
318.19 K, 30390 kPa, x2 = 0.97	–	1261.1
318.19 K, 45590 kPa, x2 = 0.8496	–	1359.9
318.19 K, 45590 kPa, x2 = 0.97	–	1341.7
318.19 K, 60790 kPa, x2 = 0.97	–	1413.8
318.19 K, 91180 kPa, x2 = 0.97	–	1538.7
318.19 K, 101320 kPa, x2 = 0.1014	–	1652.2
318.19 K, 101320 kPa, x2 = 0.97	–	1576.7
318.2 K, 15200 kPa, x2 = 0.1014	–	1286.7
318.2 K, 15200 kPa, x2 = 0.8496	–	1191.3
318.2 K, 30390 kPa, x2 = 0.1014	–	1366.6
318.2 K, 30390 kPa, x2 = 0.8496	–	1281.3
318.2 K, 45590 kPa, x2 = 0.1014	–	1437.8
318.2 K, 60790 kPa, x2 = 0.1014	–	1502.5
318.2 K, 60790 kPa, x2 = 0.8496	–	1430.4
318.2 K, 75990 kPa, x2 = 0.8496	–	1494.5
318.2 K, 76190 kPa, x2 = 0.1014	–	1562.6
318.2 K, 91180 kPa, x2 = 0.1014	–	1617.7
318.2 K, 91180 kPa, x2 = 0.8496	–	1553.3
318.2 K, 101320 kPa, x2 = 0.8496	–	1590.8
318.28 K, 101320 kPa, x2 = 0.5003	–	1623.8
318.29 K, 15200 kPa, x2 = 0	–	1296.2
318.29 K, 15200 kPa, x2 = 0.3007	–	1265.2
318.29 K, 15200 kPa, x2 = 0.5003	–	1243.2
318.29 K, 30390 kPa, x2 = 0	–	1375
318.29 K, 30390 kPa, x2 = 0.5003	–	1327.5
318.29 K, 45590 kPa, x2 = 0	–	1445.5
318.29 K, 45590 kPa, x2 = 0.3007	–	1420.2
318.29 K, 45590 kPa, x2 = 0.5003	–	1401.9
318.29 K, 60790 kPa, x2 = 0	–	1509.7
318.29 K, 60790 kPa, x2 = 0.3007	–	1486
318.29 K, 60790 kPa, x2 = 0.5003	–	1469.1
318.29 K, 75990 kPa, x2 = 0.3007	–	1546.1
318.29 K, 75990 kPa, x2 = 0.5003	–	1530.4
318.29 K, 91180 kPa, x2 = 0	–	1624.1
318.29 K, 91180 kPa, x2 = 0.3007	–	1602.7
318.29 K, 91180 kPa, x2 = 0.5003	–	1587.6
318.29 K, 101320 kPa, x2 = 0	–	1658.5
318.29 K, 101320 kPa, x2 = 0.3007	–	1638.2
318.3 K, 30390 kPa, x2 = 0.3007	–	1347.3
318.3 K, 75990 kPa, x2 = 0	–	1568.8
318.3 K, 75990 kPa, x2 = 0.7007	–	1510
318.3 K, 101320 kPa, x2 = 0.7007	–	1605
318.31 K, 15200 kPa, x2 = 0.7007	–	1213.9
318.31 K, 30390 kPa, x2 = 0.7007	–	1301.3
318.31 K, 45590 kPa, x2 = 0.7007	–	1378
318.31 K, 60790 kPa, x2 = 0.7007	–	1447.1
318.31 K, 91180 kPa, x2 = 0.7007	–	1568.1
318.37 K, 101 kPa, x2 = 0.6	–	1123.2
318.38 K, 101 kPa, x2 = 0.7002	–	1105.9
318.38 K, 101 kPa, x2 = 0.8995	–	1066.3
318.39 K, 101 kPa, x2 = 0	–	1200.9
318.39 K, 101 kPa, x2 = 0.3002	–	1167
318.39 K, 101 kPa, x2 = 0.3996	–	1153.6
318.4 K, 101 kPa, x2 = 0.1007	–	1190.5
318.4 K, 101 kPa, x2 = 0.8	–	1087
318.41 K, 101 kPa, x2 = 0.2001	–	1179.3
318.41 K, 101 kPa, x2 = 0.5002	–	1138.9
